Experimental data as given in patent US7709636B2, “Pyrazole sulfonylurea compound and herbicide” (Nissan Chemical Industries, Ltd., priority 2004, dated 2010).

Experiments:
Abutilon avicennae [1] = assay: Herbicidal effect test by foliage treatment; assay type: in vivo; details: 1.6 g/a; foliage treatment after growth of 14 days; 3 weeks after treatment
How it was run: (§1)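 Post-emergence foliar spray: plants raised 14 d in greenhouse (25–30° C) from seed in sterilized diluvial soil, sprayed with diluted wettable powder formulation, injury rated visually at 3 wk.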

Digitaria adscendes [2] = assay: Herbicidal effect test by foliage treatment; assay type: in vivo; details: 1.6 g/a; foliage treatment after growth of 14 days; 3 weeks after treatment
How it was run: as §1

Black-grass [3] = assay: Herbicidal effect test by foliage treatment; assay type: in vivo; details: 1.6 g/a; foliage treatment after growth of 14 days; 3 weeks after treatment
How it was run: as §1

soybean (Glycine max) [4] = assay: Herbicidal effect test by foliage treatment; assay type: in vivo; details: 1.6 g/a; foliage treatment after growth of 14 days; 3 weeks after treatment
How it was run: as §1

corn (Zea mays) [5] = assay: Herbicidal effect test by foliage treatment; assay type: in vivo; details: 1.6 g/a; foliage treatment after growth of 14 days; 3 weeks after treatment
How it was run: as §1

Echinochloa crus-galli [6] = assay: Herbicidal effect test by foliage treatment; assay type: in vivo; details: 1.6 g/a; foliage treatment after growth of 14 days; 3 weeks after treatment
How it was run: as §1

[7] = test system: Triticum aestivum (wheat); assay: Herbicidal effect test by foliage treatment; assay type: in vivo; details: 1.6 g/a; foliage treatment after growth of 14 days; 3 weeks after treatment
How it was run: as §1

Polygonum blumei [8] = assay: Herbicidal effect test by foliage treatment; assay type: in vivo; details: 1.6 g/a; foliage treatment after growth of 14 days; 3 weeks after treatment
How it was run: as §1

Chenopodium album [9] = assay: Herbicidal effect test by foliage treatment; assay type: in vivo; details: 1.6 g/a; foliage treatment after growth of 14 days; 3 weeks after treatment
How it was run: as §1

Beta vulgaris (beet) [10] = assay: Herbicidal effect test by foliage treatment; assay type: in vivo; details: 1.6 g/a; foliage treatment after growth of 14 days; 3 weeks after treatment
How it was run: as §1

Setaria viridis [11] = assay: Herbicidal effect test by foliage treatment; assay type: in vivo; details: 1.6 g/a; foliage treatment after growth of 14 days; 3 weeks after treatment
How it was run: as §1

Ambrosia elatior [12] = assay: Herbicidal effect test by foliage treatment; assay type: in vivo; details: 1.6 g/a; foliage treatment after growth of 14 days; 3 weeks after treatment
How it was run: as §1

Amaranthus retroflexus [13] = assay: Herbicidal effect test by foliage treatment; assay type: in vivo; details: 1.6 g/a; foliage treatment after growth of 14 days; 3 weeks after treatment
How it was run: as §1

Stellaria media [14] = assay: Herbicidal effect test by foliage treatment; assay type: in vivo; details: 1.6 g/a; foliage treatment after growth of 14 days; 3 weeks after treatment
How it was run: as §1

Avena fatua [15] = assay: Herbicidal effect test by foliage treatment; assay type: in vivo; details: 1.6 g/a; foliage treatment after growth of 14 days; 3 weeks after treatment
How it was run: as §1

direct sown rice [16] = assay: Herbicidal effect test by soil treatment; assay type: in vivo, Oryza sativa; details: 1.6 g/a, 3 weeks after treatment
How it was run: (§2)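 Pre-emergence soil application: wettable powder formulation, water-diluted to set dose, sprayed evenly over soil surface after sowing; seeds under ~1.5 cm sterilized diluvial soil. Effect rated at 3 wk by criteria scale.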

Echinochloa crus-galli [17] = assay: Herbicidal effect test in submerged condition by treatment during weed-growth stage (1); assay type: in vivo; details: 0.64 g/a, treated at 1st to 2nd leaf stage, 3 weeks after treatment
How it was run: (§3)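 Paddy-soil pots flooded to 4 cm water depth were sown and grown in a greenhouse at 25 to 30° C until weeds reached 1st to 2nd leaf stage. A wettable powder diluted in water to a predetermined formulation amount was applied to the water surface. Herbicidal effect was scored 3 weeks after treatment against set criteria.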

Scirpus juncoides [18] = assay: as above; assay type: in vivo; details: 0.64 g/a, treated at 1st to 2nd leaf stage, 3 weeks after treatment
How it was run: as §3

Monochoria vaginalis [19] = assay: as above; assay type: in vivo; details: 0.64 g/a, treated at 1st to 2nd leaf stage, 3 weeks after treatment
How it was run: as §3

Echinochloa crus-galli [20] = assay: Herbicidal effect test in submerged condition by treatment before weed-generation (1); assay type: in vivo; details: 0.64 g/a, water surface treated on day of sowing, 3 weeks after treatment
How it was run: (§4)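 Pre-emergence water-surface application of diluted wettable-powder formulation at a predetermined rate, same day as sowing, in flooded alluvial soil (4 cm water) with transplanted 2.5-leaf rice. Grown 3 weeks at 25 to 30° C in greenhouse; rated 0–5 by herbicidal rate.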

Scirpus juncoides [21] = assay: as above; assay type: in vivo; details: 0.64 g/a, water surface treated on day of sowing, 3 weeks after treatment
How it was run: as §4

Monochoria vaginalis [22] = assay: as above; assay type: in vivo; details: 0.64 g/a, water surface treated on day of sowing, 3 weeks after treatment
How it was run: as §4

Abutilon avicennae [23] = assay: Herbicidal effect test by soil treatment; assay type: in vivo; details: 1.6 g/a, 3 weeks after treatment
How it was run: as §2

Digitaria adscendes [24] = assay: Herbicidal effect test by soil treatment; assay type: in vivo; details: 1.6 g/a, 3 weeks after treatment
How it was run: as §2

Black-grass [25] = assay: Herbicidal effect test by soil treatment; assay type: in vivo; details: 1.6 g/a, 3 weeks after treatment
How it was run: as §2

soybean (Glycine max) [26] = assay: Herbicidal effect test by soil treatment; assay type: in vivo; details: 1.6 g/a, 3 weeks after treatment
How it was run: as §2

corn (Zea mays) [27] = assay: Herbicidal effect test by soil treatment; assay type: in vivo; details: 1.6 g/a, 3 weeks after treatment
How it was run: as §2

Echinochloa crus-galli [28] = assay: Herbicidal effect test by soil treatment; assay type: in vivo; details: 1.6 g/a, 3 weeks after treatment
How it was run: as §2

[29] = test system: Triticum aestivum (wheat); assay: Herbicidal effect test by soil treatment; assay type: in vivo; details: 1.6 g/a, 3 weeks after treatment
How it was run: as §2

Polygonum blumei [30] = assay: Herbicidal effect test by soil treatment; assay type: in vivo; details: 1.6 g/a, 3 weeks after treatment
How it was run: as §2

Chenopodium album [31] = assay: Herbicidal effect test by soil treatment; assay type: in vivo; details: 1.6 g/a, 3 weeks after treatment
How it was run: as §2

Beta vulgaris (beet) [32] = assay: Herbicidal effect test by soil treatment; assay type: in vivo; details: 1.6 g/a, 3 weeks after treatment
How it was run: as §2

Setaria viridis [33] = assay: Herbicidal effect test by soil treatment; assay type: in vivo; details: 1.6 g/a, 3 weeks after treatment
How it was run: as §2

Ambrosia elatior [34] = assay: Herbicidal effect test by soil treatment; assay type: in vivo; details: 1.6 g/a, 3 weeks after treatment
How it was run: as §2

Amaranthus retroflexus [35] = assay: Herbicidal effect test by soil treatment; assay type: in vivo; details: 1.6 g/a, 3 weeks after treatment
How it was run: as §2

Stellaria media [36] = assay: Herbicidal effect test by soil treatment; assay type: in vivo; details: 1.6 g/a, 3 weeks after treatment
How it was run: as §2

Avena fatua [37] = assay: Herbicidal effect test by soil treatment; assay type: in vivo; details: 1.6 g/a, 3 weeks after treatment
How it was run: as §2

direct sown rice [38] = assay: Herbicidal effect test by foliage treatment; assay type: in vivo, Oryza sativa; details: 1.6 g/a; foliage treatment after growth of 14 days; 3 weeks after treatment
How it was run: as §1

COc1cc(OC)nc(NC(=O)NS(=O)(=O)c2c(C3=NOCC(CI)O3)c(C)nn2C)n1 (centres unmarked) [Compound 6]
herbicidal effect, H: Abutilon avicennae (Abutilon avicennae [1]): 5 (Herbicidal rate 90% or more (almost complete death)) | herbicidal effect, D: Digitaria adscendes (Digitaria adscendes [2]): 5 (Herbicidal rate 90% or more (almost complete death)) | herbicidal effect, G: Black-grass (Black-grass [3]): 5 (Herbicidal rate 90% or more (almost complete death)) | herbicidal effect, c: soybean (Glycine max) (soybean (Glycine max) [4]): 4 (Herbicidal rate 70% or more and less than 90%) | herbicidal effect, b: corn (Zea mays) (corn (Zea mays) [5]): 4 (Herbicidal rate 70% or more and less than 90%) | herbicidal effect, A: Echinochloa crus-galli (Echinochloa crus-galli [6]): 5 (Herbicidal rate 90% or more (almost complete death)) | herbicidal effect, e: Triticum aestivum (wheat) [7]: 4 (Herbicidal rate 70% or more and less than 90%) | herbicidal effect, L: Polygonum blumei (Polygonum blumei [8]): 5 (Herbicidal rate 90% or more (almost complete death)) | herbicidal effect, K: Chenopodium album (Chenopodium album [9]): 5 (Herbicidal rate 90% or more (almost complete death)) | herbicidal effect, f: Beta vulgaris (beet) (Beta vulgaris (beet) [10]): 5 (Herbicidal rate 90% or more (almost complete death)) | herbicidal effect, E: Setaria viridis (Setaria viridis [11]): 5 (Herbicidal rate 90% or more (almost complete death)) | herbicidal effect, I: Ambrosia elatior (Ambrosia elatior [12]): 5 (Herbicidal rate 90% or more (almost complete death)) | herbicidal effect, J: Amaranthus retroflexus (Amaranthus retroflexus [13]): 4 (Herbicidal rate 70% or more and less than 90%) | herbicidal effect, M: Stellaria media (Stellaria media [14]): 5 (Herbicidal rate 90% or more (almost complete death)) | herbicidal effect, F: Avena fatua (Avena fatua [15]): 3 (Herbicidal rate 40% or more and less than 70%) | herbicidal effect, d: direct sown rice (direct sown rice [16]): 4 (Herbicidal rate 70% or more and less than 90%) | herbicidal effect, A: Echinochloa crus-galli (Echinochloa crus-galli [17]): 5 (Herbicidal rate 90% or more (almost complete death)) | herbicidal effect, B: Scirpus juncoides (Scirpus juncoides [18]): 5 (Herbicidal rate 90% or more (almost complete death)) | herbicidal effect, C: Monochoria vaginalis (Monochoria vaginalis [19]): 5 (Herbicidal rate 90% or more (almost complete death)) | herbicidal effect, A: Echinochloa crus-galli (Echinochloa crus-galli [20]): 5 (Herbicidal rate 90% or more (almost complete death)) | herbicidal effect, B: Scirpus juncoides (Scirpus juncoides [21]): 5 (Herbicidal rate 90% or more (almost complete death)) | herbicidal effect, C: Monochoria vaginalis (Monochoria vaginalis [22]): 5 (Herbicidal rate 90% or more (almost complete death)) | herbicidal effect, H: Abutilon avicennae (Abutilon avicennae [23]): 3 (Herbicidal rate 40% or more and less than 70%) | herbicidal effect, D: Digitaria adscendes (Digitaria adscendes [24]): 4 (Herbicidal rate 70% or more and less than 90%) | herbicidal effect, G: Black-grass (Black-grass [25]): 5 (Herbicidal rate 90% or more (almost complete death)) | herbicidal effect, c: soybean (Glycine max) (soybean (Glycine max) [26]): 3 (Herbicidal rate 40% or more and less than 70%) | herbicidal effect, b: corn (Zea mays) (corn (Zea mays) [27]): 4 (Herbicidal rate 70% or more and less than 90%) | herbicidal effect, A: Echinochloa crus-galli (Echinochloa crus-galli [28]): 4 (Herbicidal rate 70% or more and less than 90%) | herbicidal effect, e: Triticum aestivum (wheat) [29]: 4 (Herbicidal rate 70% or more and less than 90%) | herbicidal effect, L: Polygonum blumei (Polygonum blumei [30]): 5 (Herbicidal rate 90% or more (almost complete death)) | herbicidal effect, K: Chenopodium album (Chenopodium album [31]): 5 (Herbicidal rate 90% or more (almost complete death)) | herbicidal effect, f: Beta vulgaris (beet) (Beta vulgaris (beet) [32]): 4 (Herbicidal rate 70% or more and less than 90%) | herbicidal effect, E: Setaria viridis (Setaria viridis [33]): 3 (Herbicidal rate 40% or more and less than 70%) | herbicidal effect, I: Ambrosia elatior (Ambrosia elatior [34]): 5 (Herbicidal rate 90% or more (almost complete death)) | herbicidal effect, J: Amaranthus retroflexus (Amaranthus retroflexus [35]): 4 (Herbicidal rate 70% or more and less than 90%) | herbicidal effect, M: Stellaria media (Stellaria media [36]): 5 (Herbicidal rate 90% or more (almost complete death)) | herbicidal effect, F: Avena fatua (Avena fatua [37]): 0 (Herbicidal rate 5% or less (little effect)) | herbicidal effect, d: direct sown rice (direct sown rice [38]): 4 (Herbicidal rate 70% or more and less than 90%)
